“Also recorded” adds a separate entry of the source. Starred links: 1 amine or outer side, 2 acyl side, 3 side chain; linkers in the order of their positions; H or OH if unused. Positions of bridges follow the written chain, without caps; N, C: chain ends. Non-standard residues stand in square brackets, D forms with d. Chains are numbered I, II in the order given. X1 = O=C(CCOCCOCCOCCN(CCOCCOCCOCCn1cc(CCC(=O)[*:2])nn1)CCOCCOCCOCCn1cc(CCC(=O)[*:3])nn1)[*:1]; TATA = O=C(CC[*:1])N1CN(C(=O)CC[*:2])CN(C(=O)CC[*:3])C1; d1Nal = N[C@H](Cc1cccc2ccccc12)C(=O)O; Hyp = O=C(O)[C@@H]1C[C@@H](O)CN1; hArg = N=C(N)NCCCC[C@H](N)C(=O)O; tBuAla = CC(C)(C)C[C@H](N)C(=O)O; Nle = CCCC[C@H](N)C(=O)O
Legend:
MC38 #13 tumors [1] = experiment: Anti-tumor activity in syngeneic Nectin-4 overexpressing MC38 tumor model (MC38 #13); format: in vivo, C57BL/6J-hCD137 mice; conditions: for complete tumor responses: day 15; for complete responders: day 52, IV
Experimental: 6-8 weeks old C57BL/6J-hCD137 female mice were inoculated in the flank with 1×10^6 syngeneic Nectin-4 overexpressing MC38 cells (MC38 #13). When tumors reached 72 mm^3 size on average, mice were randomized to receive vehicle or BCY11863 (intraperitoneal administration). BCY11863 was administered (n=6 mice/treatment cohort) at either 1 mg/kg or 10 mg/kg either daily (QD) or every three days (Q3D). QD dosed mice received 16 doses of BCY11863 and Q3D dosed mice received […] of BCY11863. Tumor growth was monitored by caliper measurements until day 69 after treatment initiation. […] By day 48, 22 out of 24 BCY11863-treated animals had responded to the treatment completely and had no palpable tumors remaining.
6-8 week old female C57BL/6J-hCD137 mice [B-hTNFRSF9(CD137) mice; Biocytogen] were implanted subcutaneously with 1×10^6 MC38 #13 (MC38 cells engineered to overexpress murine Nectin-4) cells. Mice were randomized into treatment groups (n=6/cohort) when average tumor volumes reached around 95 mm^3 and were treated with a weekly dose of vehicle (25 mM histidine, 10% sucrose, pH7) or 10 mg/kg BCY11863 with two different dosing schedules for two dosing cycles (5 mg/kg BCY11863 at 0 h and 24 h on DO and D7, or 10 mg/kg at 0 h on DO and D7). All treatments were administered intravenously (IV). Tumor growth was monitored until Day 15 from treatment initiation.
At 3 weekly doses of 3, 10 and 30 mg/kg with dose fractionated weekly, biweekly and daily 6-8 week old female C57BL/6J-hCD137 mice [B-hTNFRSF9(CD137) mice; Biocytogen] were implanted subcutaneously with 1×10^6 MC38 #13 (MC38 cells engineered to overexpress murine Nectin-4) cells. Mice were randomized into treatment groups (n=6/cohort) when average tumor volumes reached around 107 mm^3 and were treated with 21 daily doses of vehicle (25 mM histidine, 10% sucrose, pH7). BCY11863 treatment was done at three different total dose levels (3, 10 and 30 mg/kg total weekly dose) fractionated in three different schedules (QD: daily; BIW: twice a week or QW: weekly). Different BCY11863 treatment cohorts received either 21 daily doses (0.43, 1.4 or 4.3 mg/kg), 6 twice weekly doses (1.5, 5 or 15 mg/kg) or 3 weekly doses (3, 10 or 30 mg/kg). All treatments were administered intravenously (IV). Tumor growth was monitored until tumor reached volumes over 2000 mm^3 or until 31 days after treatment initiation. Complete responders (animals with no palpable tumors) were followed until D52.

MC38 #13 tumors [2] = experiment: Re-inoculation of complete responders with MC38 #13 cells (immunogenic memory); format: in vivo, C57BL/6J-hCD137 mice; conditions: re-inoculated day 69 with 1x10^6 MC38 #13 cells; 22 days observation
From the text: On day 69, 5 animals that had responded completely to BCY11863 treatment were re-inoculated with 1×10^6 MC38 #13-cells. A cohort of 5 naïve C57BL/6J-hCD137 female mice were inoculated with 1×10^6 MC38 #13-cells as a control.

mouse Nectin-4 = target: T1, mouse Nectin-4 (Mus musculus, UniProt Q8R007); experiment: SPR direct binding to biotinylated Nectin-4 extracellular domain, mouse
T1 sequence (Q8R007 31-347 limits assumed): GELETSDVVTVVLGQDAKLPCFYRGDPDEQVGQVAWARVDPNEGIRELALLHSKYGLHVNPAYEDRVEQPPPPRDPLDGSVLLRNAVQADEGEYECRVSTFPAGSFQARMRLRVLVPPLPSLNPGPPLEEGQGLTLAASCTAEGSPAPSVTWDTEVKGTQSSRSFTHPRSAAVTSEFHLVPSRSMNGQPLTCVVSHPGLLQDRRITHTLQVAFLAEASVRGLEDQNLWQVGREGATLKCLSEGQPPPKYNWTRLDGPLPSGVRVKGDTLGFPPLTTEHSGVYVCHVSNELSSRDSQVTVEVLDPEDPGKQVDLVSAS
From the text: The binding of BCY11863 to its primary target Nectin-4 and CD137 was characterized using surface plasmon resonance (SPR).

rat Nectin-4 = target: T2, rat Nectin-4 (Rattus norvegicus, UniProt D3ZET1); experiment: Multicomponent SPR: Nectin-4 binding to complex captured on biotinylated human CD137, rat Nectin-4
T2 construct: extracellular domain using biotinylated human
T2 sequence (D3ZET1 31-509): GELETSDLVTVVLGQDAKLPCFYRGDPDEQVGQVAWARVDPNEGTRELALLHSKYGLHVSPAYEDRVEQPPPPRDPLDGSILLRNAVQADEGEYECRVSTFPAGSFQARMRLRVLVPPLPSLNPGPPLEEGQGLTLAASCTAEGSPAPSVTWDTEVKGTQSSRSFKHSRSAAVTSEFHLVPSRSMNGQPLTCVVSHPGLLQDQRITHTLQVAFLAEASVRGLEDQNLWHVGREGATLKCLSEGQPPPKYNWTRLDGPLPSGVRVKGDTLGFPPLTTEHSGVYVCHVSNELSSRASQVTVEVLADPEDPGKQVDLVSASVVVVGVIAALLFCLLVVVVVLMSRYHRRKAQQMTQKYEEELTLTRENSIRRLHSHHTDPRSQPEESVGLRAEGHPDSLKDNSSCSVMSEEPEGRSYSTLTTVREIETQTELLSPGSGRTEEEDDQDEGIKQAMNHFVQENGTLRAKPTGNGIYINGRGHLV
T2 sequence (Q07011 24-186 partner): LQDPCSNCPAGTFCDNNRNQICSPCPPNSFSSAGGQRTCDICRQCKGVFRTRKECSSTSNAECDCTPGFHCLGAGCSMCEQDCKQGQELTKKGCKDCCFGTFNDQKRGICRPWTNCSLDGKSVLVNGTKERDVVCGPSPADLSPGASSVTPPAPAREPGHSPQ
From the text: To understand whether the binding of BCY11863 to Nectin-4 was altered in the context of the ternary complex, i.e. when also bound to CD137, a multicomponent SPR binding assay was developed. BCY11863 was first captured to human CD137 immobilized on the SPR chip surface and then Nectin-4 from different species were passed over the chip to determine their affinities to the captured BCY11863 (see FIG. 21C). The affinities to Nectin-4 were generally maintained in the presence of CD137 binding as shown below: […]

CD137 = CD137 (Homo sapiens, UniProt Q07011); experiment: CD137 reporter assay (Promega CD137 luciferase reporter, Jurkat cells) in co-culture with Nectin-4-expressing tumor cells; format: cell-based; set-up: host or cells: Jurkat reporter cells; conditions: for EC50: Arithmetic mean EC50 (nM)
Sequence of CD137 (Q07011 24-255): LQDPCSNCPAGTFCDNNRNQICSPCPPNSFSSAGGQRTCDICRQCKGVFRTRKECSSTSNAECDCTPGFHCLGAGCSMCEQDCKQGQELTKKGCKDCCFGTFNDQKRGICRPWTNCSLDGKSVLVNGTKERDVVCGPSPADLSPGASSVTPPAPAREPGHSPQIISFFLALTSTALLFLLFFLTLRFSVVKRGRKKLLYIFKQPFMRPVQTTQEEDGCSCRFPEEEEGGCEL

MC38 tumors = experiment: Anti-tumor activity of BCY13272 in syngeneic MC38 tumor model with re-challenge; format: in vivo, C57BL/6J-hCD137 mice; conditions: for complete responders: 6 doses, day 28
Experimental: 6-8 week old female C57BL/6J-hCD137 mice [B-hTNFRSF9(CD137) mice; Biocytogen] were implanted subcutaneously with 1×10^6 MC38 cells. Mice were randomized into treatment groups (n=6/cohort) when average tumor volumes reached around 80 mm^3 and were treated with vehicle (25 mM histidine, 10% sucrose, pH7) intravenously (IV), 8 mg/kg BCY13272, 0.9 mg/kg BCY13272 and 0.1 mg/kg BCY13272 IV. All treatments were given twice a week (BIW) for 6 doses in total. Tumor growth was monitored until Day 28 from treatment initiation. Complete responder animals (n=7) were followed until day 62 after treatment initiation and re-challenged with an implantation of 2×10^6 MC38 tumor cells and tumor growth was monitored for 28 days. In parallel, naïve age-matched control huCD137 C57Bl/6 mice (n=5) were implanted with 2×10^6 MC38 tumor cells monitored for 28 days.

## CCCC[C@@H]1NC(=O)[C@H](Cc2ccc(O)cc2)NC(=O)[C@@H]2CCCN2C(=O)[C@H](CC(=O)O)NC(=O)[C@H](C)NC(=O)[C@H](Cc2ccccc2)NC(=O)[C@@H]2CSCCC(=O)N3CN(CN(C3)C(=O)CCSC[C@@H](C(=O)N[C@@H](C)C(N)=O)NC1=O)C(=O)CCSC[C@H](NC(C)=O)C(=O)N[C@@H](CC(C)(C)C)C(=O)N1CCC[C@H]1C(=O)N[C@@H](CCC(=O)O)C(=O)N[C@H](CCCCNC(=O)CCc1cn(CCOCCOCCOCCN(CCOCCOCCOCCC(=O)N[C@H]3CSCCC(=O)N4CN5CN(C4)C(=O)CCSC[C@H](NC(=O)[C@@H](CC(=O)O)NC(=O)[C@H](Cc4cccc6ccccc46)NC(=O)[C@@H]4CCCN4C3=O)C(=O)N[C@@H](CCSC)C(=O)N[C@@H](CCCCNC(=N)N)C(=O)N[C@@H](CC(=O)O)C(=O)N[C@@H](Cc3c[nH]c4ccccc34)C(=O)N[C@@H](CO)C(=O)N[C@@H]([C@@H](C)O)C(=O)N3CCC[C@H]3C(=O)N3C[C@H](O)C[C@H]3C(=O)N[C@@H](Cc3c[nH]c4ccccc34)C(=O)N[C@H](C(N)=O)CSCCC5=O)CCOCCOCCOCCn3cc(CCC(=O)NCCCC[C@H]4NC(=O)[C@H](CCC(=O)O)NC(=O)[C@@H]5CCCN5C(=O)[C@H](CC(C)(C)C)NC(=O)[C@@H](NC(C)=O)CSCCC(=O)N5CN6CN(C5)C(=O)CCSC[C@H](NC(=O)[C@H](Cc5ccc(O)cc5)NC(=O)[C@@H]5CCCN5C4=O)C(=O)N[C@@H](Cc4ccccc4)C(=O)N[C@@H](C)C(=O)N[C@@H](CC(=O)O)C(=O)N4CCC[C@H]4C(=O)N[C@@H](Cc4ccc(O)cc4)C(=O)N[C@@H](CCCC)C(=O)N[C@H](C(=O)N[C@@H](C)C(N)=O)CSCCC6=O)nn3)nn1)C(=O)N1CCC[C@H]1C(=O)N[C@@H](Cc1ccc(O)cc1)C(=O)N2 [BCY11863]
MC38 #13 tumors [1]; 1 or 10 mg/kg, QD or Q3D, ip, p<0.05 vs vehicle, 2 cohorts by day 7, all by day 14
  tumor growth: significant reduction
MC38 #13 tumors [1]; by day 48, all cohorts, 1 or 10 mg/kg, QD or Q3D, ip
  animals responded completely, no palpable tumors: 22 out of 24
MC38 #13 tumors [1]; 5 mg/kg at 0 h and 24 h on D0 and D7, IV
  complete tumor responses: 4 out of 6
MC38 #13 tumors [1]; 10 mg/kg at 0 h on D0 and D7, IV
  complete tumor responses: one out of 6
MC38 #13 tumors [1]; 5 mg/kg BIW
  complete responders: 6/6
MC38 #13 tumors [1]; BIW (1.5, 5 or 15 mg/kg)
  complete responders: 15/18
MC38 #13 tumors [1]; QD (0.43, 1.4 or 4.3 mg/kg)
  complete responders: 12/18
MC38 #13 tumors [1]; QW (3, 10 or 30 mg/kg)
  complete responders: 6/18
MC38 #13 tumors [2]
  tumor development after re-inoculation of complete responders: none of the CR mice developed tumors; also recorded: none of the inoculated complete responder mice developed tumors
Mouse Nectin-4; KD, biotinylated ECD captured on streptavidin chip
  Kd: 5 to 27 nM
Mouse Nectin-4; SPR KD Mouse (25° C.), Direct Binding, biotinylated Nectin-4 extracellular domain, 25° C.
  Kd: 4.6 ± 2.1 nM
Rat Nectin-4
  Kd: 25 ± 2 nM
CD137; co-culture with CT26#7 (mouse)
  EC50: 0.14 ± 0.07 nM
CD137; co-culture with HT1376 (human), Table 1B
  EC50: 0.52 ± 0.3 nM
CD137; co-culture with MC38#13 (mouse)
  EC50: 0.31 ± 0.26 nM
CD137; co-culture with MDA-MB-468 (human)
  EC50: 0.23 ± 0.01 nM
CD137; co-culture with NCI-H292 (human), Table 1B
  EC50: 0.28 ± 0.2 nM
CD137; co-culture with NCI-H322 (human)
  EC50: 0.33 ± 0.21 nM
CD137; co-culture with T47D (human)
  EC50: 0.42 ± 0.24 nM
CD137; FIG. 1A, Nectin-4 expressing H292 cells
  CD137 activation in CD137 reporter assay: induces strong CD137 activation
CD137; co-culture with NCI-H292
  Fold improvement in EC50 over BCY10000 on same plate: 4.56 fold
  Fold improvement in Emax over BCY10000 on same plate: 2.16 fold
CD137; co-culture with NCI-H292, Table 1A
  Fold Induction over Background: 81 ± 29 fold

## I: A[hArg]DC[Hyp]LVNPLCLEP[d1Nal]WTC-NH2 / II: Ac-C[tBuAla]PE[dK]PYCFADPY[Nle]CA-NH2 / III: Ac-C[tBuAla]PE[dK]PYCFADPY[Nle]CA-NH2 (linker I:4-I:11-I:18, II:1-II:8-II:15, III:1-III:8-III:15 via TATA; linker I:N-II:5-III:5 via X1) [BCY13272]
MC38 tumors; 0.9 mg/kg IV BIW
  complete responders: 2 out of 6
MC38 tumors; 8 mg/kg IV BIW
  complete responders: 5 out of 6
MC38 tumors; re-challenge day 62, monitored 28 days
  tumor regrowth after MC38 re-challenge of complete responders: no tumor regrowth
